Patent US8951734B2, “Prion-like form of CPEB and related compositions and methods” (priority 2003, dated 2015)
*1 amine or outer side, *2 acyl side, *3 side chain or, on linkers, in order; H or OH if unused. Where a SMILES comes first, the peptide text is derived from it. Bridges are numbered along the chain shown (N, C = ends). Roman numbers before positions name the chains, in order. [ ]: non-standard residue; d: D form. Actinocin(9to1) = Cc1c2oc3c(C)ccc(C(=O)[*:1])c3nc-2c(C(=O)[*:2])c(N)c1=O; NMeV = CN[C@H](C(=O)O)C(C)C; Sar = CNCC(=O)O

Legend:
ApCPEB [1] = test: ApCPEB protein induction in isolated pleural ganglia / sensory cell clusters stimulated with 5-HT, with or without pharmacological agents (Western blot); type: cell-based, Aplysia; details: for effect on 5-HT induction of ApCPEB: pretreatment
Method: (§1) Aplysia weighing 80-100 grams were used for serotonin (5-HT) stimulation. For whole animal stimulation, the animals were stimulated for 1-1.5 hr at 17° C. with 100 uM of freshly prepared serotonin (Sigma) and then moved to sea water at 17° C. At designated times the pleural ganglia were dissected out. The dissection was carried out in ice cold seawater and frozen in a dry ice-ethanol bath. To apply different pharmacological agents, the pleural ganglia were dissected out and rested for 3-4 hrs at 17° C. before initiation of the treatment. The pleural ganglia were stimulated with 10 uM serotonin instead of 100 uM.
(§2) For western blotting pleural ganglia were homogenized in a buffer containing 600 mM KCl, 10 mM HEPES (7.4), 3 mM MgCl2, 1 mM DTT, and 0.2% NP-40; rotated at 4° C. for 20 min, centrifuged at 14,000×g for 10 min and the supernatant was collected. Approximately 10 ug of total protein was separated on a 10% SDS-PAGE gel and transferred to PVDF membrane. The membranes were blotted with affinity purified CPEB 533 (1:4000), rabbit affinity purified Aplysia Ubiquitin hydrolase (1:1500), rabbit anti-synaptophysin (Zymed) (1:3000), mouse anti-human Hsp70 (1:4000) (BD Biosciences) or monoclonal anti-tubulin (1:3000) (Sigma) followed by incubation with 1:10,000 dilution of HRP coupled anti-rabbit or anti-mouse secondary antibody (Cell signaling) and visualized by chemiluminescence (Pierce chemical). For peptide competition the CPEB77 antibody was preincubated with the peptide (1:20 w/w) at 4° C. for 30 min.

ApCPEB [2] = test: ApCPEB immunostaining in isolated sensory neurites (cell bodies severed); type: cell-based, Aplysia
Method: (§3) Following stimulation with serotonin, the cells were washed with filtered seawater and then fixed with freshly prepared 4% paraformaldehyde (PFA) in phosphate-buffered saline (PBS) plus 30% sucrose at 37° C. for 20 min. After fixation, cells were washed three times with PBS and incubated with 0.5% saponin (for isolated neurites) or 0.1% Triton X-100 (for one pulse of serotonin in the neurites) in PBS for 10 min at room temperature (RT). Subsequently cells were washed with PBS three times and excess PFA was quenched by incubating the cells in 50 mM NH4Cl in PBS for 15 min at RT. The fixed cells were blocked with a mixture of heat-inactivated 10% horse serum and 1% goat serum in PBS for 2 hr at RT, then in 1:30 dilution of affinity purified CPEB77 (for isolated neurites) or 1:100 dilution of 463 (for one pulse of serotonin in the synapse) overnight at 4° C. Next day cells were washed three times (20 min each wash) with PBS at RT before incubating with goat anti-rabbit secondary antibody conjugated with Alexa Fluor 488 (1:1000) (Molecular Probes) for 2 hr at room temperature. After three 15 min rinses with PBS cells were mounted on Fluoromount and pictures were taken at Zeiss Axiovert S-100 at 40× magnification using the program Metamorph.

ApCPEB [3] = test: ApCPEB protein in pleural ganglia after whole-animal serotonin exposure (Western blot); type: in vivo, Aplysia
Method: as §1, §2

[4] = system: sensory-motor neuron synapses; details: cited from earlier work
N-actin mRNA = test: Poly-A tail length (PAT) assay of N-actin mRNA after whole-animal serotonin stimulation; type: in vivo, Aplysia
Method: The polyA test (PAT) to measure the length of the polyA tail of CPEB mRNA was essentially done as described by Salles and Strickland (1999). Total RNA from the plural ganglia was digested with DNase1 and phenol: chloroform extracted. 3 ug of total RNA was reverse transcribed with 200 ng of AdT primer (5′-[…]-3′) (SEQ ID NO:23) using AMV reverse transcriptase. 2 ul of the cDNA was amplified with Taq polymerase using AdT and N-actin primer 5′-[…]-3′ (SEQ ID NO:17) in the PCR cycle: 94° C. 30 sec, 60° C. 1 min and 72° C. 1 min, 5 sec/cycle for 30 cycles. To check the amount of sensorin, Bmp1 and N-actin, the following primer pairs were used; sensorin-5′-AACAGAAACAGTC-TTTCCCCC-3′ (SEQ ID NO:24) and 5′-TCTTGACTCACCAACTGCC-3′ (SEQ ID NO:25), Bmp1-5′-ATCTATCGCCTATT-ATTATCACCA-3′ (SEQ ID NO:26) and 5′-[…]-3′ (SEQ ID NO:27), N-actin 5′-CCCATCCAT-TGTCCACA-3′ (SEQ ID NO:28) and 5′-TTTGAGCATTCTGGCTTC-3′(SEQ ID NO:29).

ApCPEB mRNA = test: Semi-quantitative RT-PCR of ApCPEB mRNA in sensory cells of pleural ganglia; type: cell-based, Aplysia
ApCPEB [5] = test: ApCPEB immunostaining in bifurcated sensory-motor culture, one branch stimulated with a single pulse of 5-HT; type: cell-based, Aplysia; details: 10 uM 5-HT for 50 seconds to one branch; fixed after one hour; n=10
Method: as §3, with “Metamorph. […]” for “Metamorph.”

[6] = whole animal serotonin exposure then seawater

Structure (SMILES): CC[C@H](C)[C@@H]1NC(=O)CNC(=O)[C@@H]2Cc3c([nH]c4cc(O)ccc34)[S+]([O-])C[C@@H](NC(=O)CNC1=O)C(=O)N[C@@H](CC(N)=O)C(=O)N1C[C@H](O)C[C@H]1C(=O)N[C@@H]([C@@H](C)[C@@H](O)CO)C(=O)N2 (stereo in doubt) [α-amanitin]
- effect on 5-HT induction of ApCPEB (ApCPEB [1]; 50 ug/ml): did not block

Structure (SMILES): CCCCCCOC(=O)[C@]1(O)C[C@@H]2O[C@@]1(C)n1c3ccccc3c3c4c(c5c6ccccc6n2c5c31)C(=O)NC4 [KT5720]
- effect on serotonin induced increase in ApCPEB (ApCPEB [1]; PKA inhibitor pretreatment of sensory clusters, 30 min): did not block

Structure (SMILES): Nc1ncnc2c1ncn2[C@@H]1O[C@@H]2COP(O)(=S)O[C@H]2[C@H]1O (stereo partly drawn) [SpcAMP]
- level of ApCPEB (ApCPEB [1]; activation of PKA by cell permeable cAMP analog, data not shown): did not change

Structure (SMILES): Cc1c2oc3c(C)ccc(C(=O)N[C@@H]4C(=O)N[C@H](C(C)C)C(=O)N5CCC[C@H]5C(=O)N(C)CC(=O)N(C)[C@@H](C(C)C)C(=O)O[C@@H]4C)c3nc-2c(C(=O)N[C@@H]2C(=O)N[C@H](C(C)C)C(=O)N3CCC[C@H]3C(=O)N(C)CC(=O)N(C)[C@@H](C(C)C)C(=O)O[C@@H]2C)c(N)c1=O [actinomycin D] (I: T[dV]P[Sar][NMeV] / II: T[dV]P[Sar][NMeV]; ester I:1-I:C, II:1-II:C; linker I:N-II:N via Actinocin(9to1))
- effect on 5-HT induction of ApCPEB (ApCPEB [1]; 10 ug/ml): did not block

Structure (SMILES): COc1ccc2c(c[n+](C)c3c4cc5c(cc4ccc23)OCO5)c1OC [chelerythrine]
- effect on serotonin dependent increase of ApCPEB protein (ApCPEB [1]; PKC inhibitor, 10 uM): did not affect

Structure (SMILES): C[C@@H]1C[C@@H]([C@H](O)CC2CC(=O)NC(=O)C2)C(=O)[C@@H](C)C1 [cycloheximide]
- effect on 5-HT induction of ApCPEB protein (ApCPEB [1]; 40 uM): reduced

Structure (SMILES): CC[C@H]1CN2CCc3cc(OC)c(OC)cc3[C@@H]2C[C@@H]1C[C@H]1NCCc2cc(OC)c(OC)cc21 [emetine]
- effect on 5-HT induction of ApCPEB protein (ApCPEB [1]; 100 uM): reduced

Structure (SMILES): CO[C@H]1C[C@@H]2CC[C@@H](C)[C@@](O)(O2)C(=O)C(=O)N2CCCC[C@H]2C(=O)O[C@H]([C@H](C)C[C@@H]2CC[C@@H](O)[C@H](OC)C2)CC(=O)[C@H](C)/C=C(\C)[C@@H](O)[C@@H](OC)C(=O)[C@H](C)C[C@H](C)/C=C/C=C/C=C/1C [rapamycin]
- average fluorescence intensity (ApCPEB immunoreactivity) (ApCPEB [2]; neurites stimulated with 5-HT in presence of 20 nM rapamycin, n=9): 0.77±0.1

Structure (SMILES): NCCc1c[nH]c2ccc(O)cc12 [serotonin]
- increase of total content of ApCPEB (ApCPEB [3]; whole animal exposed to serotonin for one hour, thirty minutes after initiation of treatment, pleural ganglia extract): 4 to 5 fold
- persistence of increased level of ApCPEB (ApCPEB [3]; [6]): about 3 hours
- return of ApCPEB to basal levels (ApCPEB [3]; [6]): returned to basal levels after five hours
- duration of long-term facilitation (LTF) ([4]; five pulses (Martin et al. 1997)): three or more days
- duration of synapse-specific short-term facilitation ([4]; single pulse to one of two sets of synapses (Martin et al. 1997)): lasts for minutes
- duration of increased poly(A) tail of N-actin (N-actin mRNA; whole-animal stimulation): at least 4 hours
- increase of poly(A) tail of N-actin (N-actin mRNA; within an hour after initiation of treatment): 200-400 nucleotides
- average fluorescence intensity (ApCPEB immunoreactivity) in stimulated neurites (ApCPEB [2]; 10 uM 5-HT bath application 1 hr, n=8): 9.37±0.73
- amount of ApCPEB mRNA, treated versus untreated (ApCPEB mRNA): no significant difference
- average fluorescence intensity (ApCPEB immunoreactivity) in treated branch (ApCPEB [5]): 53.3±8.7
- average fold induction of ApCPEB (ApCPEB [1]; 5-HT for an hour, western blots scanned and quantified with NIH image, controls of inhibitor sets (FIG. 5d)): 3.3±0.4
- increase of total CPEB content (ApCPEB [1]; isolated pleural ganglia, 10 uM 5-HT): 3-4 fold
- increase in total ApCPEB protein content (ApCPEB [1]; sensory cell clusters, 10 uM 5-HT for 10 min, then seawater 50 min): 4-5 fold
